# The source made the active and inactive calls. No rule for the calls is given here.
# Experiment: Quorum luxo inducers, light production, v cholerae bh1651 luxod47e, confirmatory dose response (AID 624254)
# Details: V. cholerae BH1651 luxOD47E, luciferase light induction, 6 h; at 50 µM (top of the series)
row,SMILES,activation (light increase)
1,Cc1cccc(OC(C)C(=O)NC2CCS(=O)(=O)C2)c1C (stereo not given),inactive
2,COCCn1nnnc1CN1CCC(NC(=O)Nc2cccc(OC)c2)CC1,inactive
3,CCCCN(Cc1nc2ccccc2c(=O)[nH]1)C(=O)CN1C(=O)NC2(CCCCC2)C1=O,inactive
4,CC(C)CCN1CC(C(=O)N2CCN(c3ccc(F)cc3)CC2)CC1=O (stereo not given),inactive
5,Cc1nn2cnnc2c(C)c1Cc1c(F)cccc1Cl,inactive
6,COc1cccc(Nc2nc(NCCO)c3ccccc3n2)c1,inactive
7,COCCCn1c(=S)[nH]c2ccc(N3CCOCC3)cc2c1=O,inactive
8,Cc1cc2c(ncn2C)c(NS(=O)(=O)c2cc(Cl)ccc2Cl)c1C,inactive
9,CCOC(=O)C1CCN(C(=O)Nc2ccc3c(c2)nc(C)n3C)CC1,inactive
10,COc1ccc(-c2nnc3c4ccccc4c(C)nn23)cc1,inactive
11,COc1ccc(S(=O)(=O)N2CCCC(C(=O)NCc3ccncc3)C2)cc1 (stereo not given),inactive
12,Cc1csc(NC(=O)Cc2nn(C)c(=O)c3ccccc23)n1,inactive
13,CSc1ccccc1NC(=O)COc1ccc(S(=O)(=O)N2CCCC2)cc1,inactive
14,CCOC(=O)c1nnn(-c2nonc2N)c1CN1CCc2ccccc2C1,inactive
15,C[C@@H]1CN([C@@H](C)CO)C(=O)c2cccc(NC(=O)C3CC3)c2O[C@@H]1CN(C)S(=O)(=O)c1cccs1,inactive
16,O=C(COC(=O)c1ccc(O)cc1)c1ccc2c(c1)OCCO2,inactive
17,CCS(=O)(=O)Nc1ccc(C(=O)OC)cc1,inactive
18,CC(C)CC(=O)N1CCN(Cc2ccccc2Br)CC1,inactive
19,CCCS(=O)(=O)N1CCCC(C(=O)NCc2ccc(C)cc2)C1 (stereo not given),inactive
20,CCN(CC(=O)Nc1c(F)cccc1F)C(=O)c1ccc(C)c(S(=O)(=O)N2CCCCC2)c1,inactive
21,CCOC(=O)C1CCCN(Cc2cccc(Cl)c2)C1 (stereo not given),inactive
22,COc1cc(SC)ccc1C(=O)OCC(=O)NCC(C)C,inactive
23,CCN(C(=O)COc1ncnc2ccc(Br)cc12)C1CCS(=O)(=O)C1 (stereo not given),inactive
24,CCCNC(=O)Cc1ccsc1,inactive

row,SMILES,activation (light increase)
1,Cc1ccc(C(=O)N(C)CC(=O)Nc2ccc(N3CCOCC3)cc2)s1,inactive
2,Cc1noc(C)c1NC(=O)Nc1cccc2c1O[C@@H](CN(C)S(=O)(=O)c1cccs1)[C@H](C)CN([C@@H](C)CO)C2=O,inactive
3,Cn1cnc(S(=O)(=O)Nc2ccc(OC(C)(C)C)cc2)c1,inactive
4,CCOC(=O)c1c(NC(=O)COC(=O)Cc2c[nH]c3ccccc23)sc(C(=O)N(C)C)c1C,inactive
5,CCc1ccc(C(=O)Nc2ccc(Br)cn2)cc1,inactive
6,C[C@H](CO)N1C[C@H](C)[C@H](CN(C)S(=O)(=O)c2cccs2)Oc2c(NC(=O)C3CC3)cccc2C1=O,inactive
7,O=C(O)CN1CCN(Cc2ccc(F)cc2Cl)C1=O,inactive
8,COC(=O)C1CCN(C(=O)CN(C)Cc2ccc(C(C)(C)C)cc2)CC1,inactive
9,CCCOC(=O)c1ccc(NC(=O)C2CCCO2)cc1 (stereo not given),inactive
10,O=C(c1cc(-c2cccs2)nn1-c1ccccc1)N1CCN(S(=O)(=O)c2ccccc2)CC1,inactive
11,CCN(CC)c1nc(-c2ccccc2)cc(C(F)(F)F)c1C#N,inactive
12,COc1ccc2c(c1)CCC(C)N2S(=O)(=O)c1ccc(C2CNC(=O)C2)cc1 (stereo not given),inactive
13,COc1ccc(NC(=O)CN(C)C(=O)c2cccc(S(=O)(=O)N3CCN(C)CC3)c2)cc1,inactive
14,CCOC(=O)C1CCCN(C(=O)c2cc3c(OC)c(OC)c(OC)cc3[nH]2)C1 (stereo not given),inactive
15,CCCn1nnnc1SCC(=O)c1ccc2c(c1)OCCO2,inactive
16,COc1ccccc1NC(=O)CN1CCN(c2ccccc2F)CC1,inactive
17,O=S(=O)(Nc1cccc(S(=O)(=O)N2CCCCC2)c1)c1ccccc1F,inactive
18,COc1ccc(CCNC(=O)C(=O)NCC2CCCN2S(=O)(=O)c2ccc(OC)cc2)cc1 (stereo not given),inactive
19,Cc1noc(C)c1NC(=O)Nc1cccc2c1O[C@H](CN(C)S(=O)(=O)c1ccccc1)[C@@H](C)CN([C@H](C)CO)C2=O,inactive
20,O=C(Nc1cccc(Cl)c1)Nc1ccc(Cl)cn1,inactive
21,COc1ccc(OCC(=O)Nc2ccccc2OC)cc1,inactive
22,CCOC(=O)c1ccccc1NC(=O)COC(=O)C1=COCCO1,inactive
23,Cc1nn(-c2ccccc2)c(C)c1NC(=O)COC(=O)c1cccc(OC(F)F)c1,inactive
24,CN(CC(=O)Nc1ccccc1Cl)C(=O)c1cccc(-n2cccc2)c1,inactive

row,SMILES,activation (light increase)
1,Cc1noc(C)c1NC(=O)Nc1cccc2c1O[C@H](CN(C)S(=O)(=O)c1cccs1)[C@@H](C)CN([C@@H](C)CO)C2=O,inactive
2,C[C@H]1CN([C@@H](C)CO)C(=O)c2cccc(NC(=O)C3CC3)c2O[C@@H]1CN(C)S(=O)(=O)c1cccs1,inactive
3,C=CCn1c(-c2cc(OC)cc(OC)c2)n[nH]c1=S,inactive
4,C[C@@H]1CN([C@H](C)CO)C(=O)c2cccc(NC(=O)C3CC3)c2O[C@@H]1CN(C)S(=O)(=O)c1cccs1,inactive
5,Cc1ccc(Oc2ccc(Cl)cc2NC(=O)c2cnccn2)cc1,inactive
6,CCOC(=O)N1CCC(NC(=O)C2CCN(C(=O)N3CC(C)Oc4ccc(C)cc43)CC2)CC1 (stereo not given),inactive
7,Cc1ccc(S(=O)(=O)N(C)c2nonc2C)cc1,inactive
8,O=C(c1cc(-c2ccc3c(c2)OCO3)on1)N1CCN(c2ccc(F)cc2)CC1,inactive
9,O=C(COC(=O)/C=C/c1ccc(OC(F)F)cc1)NC1CCCCCC1,inactive
10,COCCNC(=S)N(CCCO)Cc1cc2cc3c(cc2[nH]c1=O)OCCO3,inactive
11,C[C@@H]1CN([C@@H](C)CO)C(=O)c2cccc(NC(=O)C3CC3)c2O[C@H]1CN(C)S(=O)(=O)c1cccs1,inactive
12,COc1ccc(NS(=O)(=O)c2cccc(C(=O)N3CCCC(C)C3)c2)cc1 (stereo not given),inactive
13,Cc1ccccc1-n1ccnc1SCC(=O)NCC1CCCO1 (stereo not given),inactive
14,CCNC(=O)CCSc1nnc(-c2ccco2)o1,inactive
15,Cc1cc(C(C)(C)C)oc1C(=O)OCC(=O)NC1CCCCC1,inactive
16,COc1cc(S(=O)(=O)N(Cc2cccs2)C2CC2)ccc1-n1cnnn1,inactive
17,COc1ccccc1NC(=O)COc1ccc2c(c1)OCO2,inactive
18,O=C(c1ccc2c(c1)OCO2)N(Cc1ccco1)C1(C(=O)NC2CCCCC2)CCCCC1,inactive
19,Cc1ccc(S(=O)(=O)Nc2cc(C(=O)NCCN(C)C)ccc2N2CCCCC2)cc1,inactive
20,COc1ccc(Cc2nn[nH]n2)cc1,inactive
21,COC(=O)c1[nH]c2ccc(C)cc2c1NC(=O)Nc1ccc(OC)cc1,inactive
22,CCCCNC(=O)c1ccccc1NC(=O)CCSc1ccccc1,inactive
23,O=[N+]([O-])c1ccc(NCCN2CCOCC2)c([N+](=O)[O-])c1,inactive
24,O=C(NCc1ccco1)c1cc2n(n1)C(C(F)(F)F)CC(c1ccc(Cl)c(Cl)c1)N2 (stereo not given),inactive

row,SMILES,activation (light increase)
1,Cc1cc(C(=O)OCC(=O)Nc2c(Cl)cccc2C(F)(F)F)c(C)o1,inactive
2,CCc1ccc(OCCNC(=O)c2cccs2)cc1,inactive
3,C[C@@H]1CN([C@@H](C)CO)C(=O)c2cccc(NC(=O)Nc3ccc4c(c3)OCO4)c2O[C@H]1CN(C)S(=O)(=O)c1ccccc1,inactive
4,CCC(C)Cn1c(S(=O)(=O)O)nc2ccccc21 (stereo not given),inactive
5,CC(C)CC(=O)Nc1ccccc1N1CCN(C(=O)c2ccccc2)CC1,inactive
6,O=C1C(=O)N(Cc2ccco2)C(c2cccc(Cl)c2)/C1=C(\O)c1ccc2c(c1)OCCO2 (stereo not given),inactive
7,CCOc1ccc2nc(SCC(=O)NC(=O)NCc3ccco3)[nH]c2c1,inactive
8,Cc1cc(NC2CCCCC2)nc(-c2ccccc2O)n1,inactive
9,CCOc1ccc(C(=O)OCC(=O)N2CCCC2)cc1,inactive
10,CCOc1ccc(CNc2nnnn2C)cc1,inactive
11,COc1ccccc1NC(=O)Cc1csc(NC(=S)Nc2ccccc2)n1,inactive
12,CCS(=O)(=O)N1CCN(C(=O)CCC2CCCC2)CC1,inactive
13,CCN(CC(=O)Nc1c(F)cccc1F)C(=O)C1CC(=O)N(c2ccccc2OC)C1 (stereo not given),inactive
14,CCn1c(SCC(=O)OC2CCCCC2)nnc1-c1ccncc1,inactive
15,Cc1ccc(C)c(S(=O)(=O)Nc2ccc(-n3cnnn3)cc2)c1,inactive
16,CC(=O)Nc1nonc1NC(C)=O,inactive
17,Cc1ccc(CN(Cc2cc3cc(C)ccc3[nH]c2=O)C(=O)N2CCOCC2)cc1,inactive
18,COc1ccc(S(=O)(=O)N2CCOCC2)cc1NC(=O)CSc1nnc(C2CC2)n1C1CC1,inactive
19,O=C(O)c1cc(CN2CCOCC2)oc1-c1ccccc1,inactive
20,CN(C)S(=O)(=O)c1ccc(NC(=S)NC(=O)Cc2ccccc2)cc1,inactive
21,CCCCc1cc2c(cc1NC(=O)CN1CCCCC1)OCCO2,inactive
22,CCOC(=O)c1sc2cc([N+](=O)[O-])cc(SCCO)c2c1N,inactive
23,COC(=O)c1nnn(-c2nonc2N)c1CSc1nc2ccccc2s1,inactive

# From PubChem BioAssay AID624254 (Broad Institute, 2012)
